These results are taken from patent US20090004207A1, “Methods and Compositions for Inhibiting Pathological Angiogenesis in the Eye” (priority 2007, published 2009).

For assay [1], the system named is Bovine retinal endothelial cells. The assay can be described thus: Boyden chamber cell migration assay, S1P-stimulated. The format is cell-based. The settings on record: 1 μM, S1P 100 nM. As to the method:
Bovine retinal endothelial cells were tested to see if JTE013, a specific S1P2 receptor antagonist, would influence normal endothelial cell functions, such as cell migration stimulated by S1P. […] In contrast, VPC44116, a specific inhibitor of S1P1 receptor blocked normal endothelial cell migration stimulated by S1P in these cells.

In assay [2] the test system is human COX-2 promoter (phPES2). The assay can be described thus: Human COX-2 promoter (phPES2) luciferase reporter activity in EOMA cells. Format: cell-based. The conditions noted are these: mouse hemangioendothelioma cells (EOMA); 100 nM for 5 hours. On the procedure:
Cells transfected with phPES2(−1432/+59) luciferase reporter were treated with PMA (100 nM, positive control). Results from one representative experiment is shown (*P<0.01, […], n=4).
EOMA cultures (3×10^5 cells/well) on 6-well plate were grown one day before the transfection. To measure transfection efficiency, cells were co-transfected with pCMV-βgal. For each well, 0.3 μg of the luciferase reporter vector phPES2(−1432/+59), 0.3 μg of the gene of interest (pcDNA3.1-S1p2 or pcDNA3.1-S1p1) and 25 ng of pCMV-βgal mixed with Lipofectin 2000 (Invitrogen) were introduced into the cells as described by the manufacturer. 24 hours after transfection, cells were treated with PMA (100 nm) for 5 hours, if necessary. Cells were harvested and luciferase and β-galactosidase activity were determined with Luciferase assay system (Promega) and Western-light and western-star system (Applied Biosystems) respectively. The amount of plasmid DNA was made constant by adding pcDNA 3.1 and luciferase activity was normalized to μg of protein content.
In addition, it was tested if S1P2 receptor can induce the transcription of the COX-2 gene. For this experiment, the human COX-2 promoter (phPES2) driven reporter activity was measured in transfected endothelial cells. […]
(In general: Reporter assays use an easily measured gene product as a stand-in for the process of interest.)

Turning to `CCCCCCCCc1cccc(NC(=O)[C@H](N)CCP(=O)(O)O)c1` [VPC44116], the “endothelial cell migration stimulated by S1P” value in assay [1] is “blocked”.

Regarding `CCCCCCCCCCCCCC(=O)O[C@@H]1[C@@H](C)[C@@]2(O)[C@@H](C=C(CO)C[C@]3(O)C(=O)C(C)=C[C@@H]23)[C@@H]2C(C)(C)[C@]12OC(C)=O` [PMA], the “induction of phPES2 (−1432/+59) promoter activity” value in assay [2] is reported as 1.83 fold.
